Broadly, the IC50 is the point on the concentration scale where inhibition reaches its midpoint.

The conditions of assay [1]: background statement, literature; cited from earlier work.
Assay [2] relates to UV4 cells. Kind of assay: Growth inhibition (cytotoxicity) of UV4 cells, 18 h drug exposure, methylene blue staining. The following applies: Cricetulus griseus. In kind it is cell-based. The protocol: (§1) To evaluate the activity of a compound UV4 cells were maintained in exponential phase growth (doubling times 14 and 15 h respectively) using Alpha MEM containing fetal calf serum (10% v/v) without antibiotics, and were subcultured twice weekly by trypsinization. Bulk cultures were prepared for experiments by seeding cells in spinner flasks at 10^4 cells/mL in the above medium with addition of penicillin (100 IU/mL) and streptomycin (100 µg/mL). Cultures were initiated in 96-well microtiter trays to give 200 (AA8) or 300 (UV4) cells in 0.05 mL per well. After growth in a CO2 incubator for 24 h, drugs were added in culture medium, using serial two-fold dilutions to provide duplicate cultures at five different concentrations for each of eight drugs (plus eight controls) per tray. After 18 h drugs were removed by washing cultures three times with fresh medium, and the trays were incubated for a further 78 h. Cell density was then determined by staining with metbylene blue as described [Finlay, G.J.; Baguley, B.C.; Wilson, W.R. Anal. Biochem., 1984, 139: 272-277]. The IC50 was calculated as the drug concentration providing 50% inhibition of growth relative to the controls.
(§2) To evaluate the activation of the compound by E. coli nitroreductase 2 (NR2) the experiment was repeated but in addition purified E. coli nitroreductase enzyme (1 µg/mL) and NADH (1 mM, as cofactor) was added during the entire time of the incubation. As a comparison the experiment was also repeated but with the addition only of NADH and not NR2.
(§3) Where multiple determinations were carried out the IC50 is given as an average ± SEM. Where one determination only was carried out a single IC50 value is given.

Assay [3] deals with UV4 cells. Kind of assay: Activation by E. coli nitroreductase 2 (NR2): growth inhibition of UV4 cells with purified enzyme and NADH added. In kind it is cell-based. Particulars: for IC50: Cricetulus griseus, UV4 cells, purified E. coli nitroreductase enzyme (1 µg/mL) and NADH (1 mM) during the entire incubation, read-out: IC50 (nM) drug + NADH + NR2; for Ratio*: IC50 drug alone/IC50 drug + NADH + NR2, intra-experiment ratios, 1080 min. As for the experimental part: as §1, §2, §3

Where [4] appears, read: 18 h exposure, then 78 h further incubation, average ± SEM where multiple determinations, read-out: IC50 (nM) drug alone.
The mark [5] stands for this setting: NADH (1 mM) added, no NR2, 18 h exposure, read-out: IC50 (nM) drug + NADH.

On to `COc1c(O)c2c(c3cc(C(=O)N4CCc5c4c(O)c(OC)c4[nH]c(C(=O)N6CC7CC78C6=CC(=O)c6[nH]cc(C)c68)cc54)[nH]c13)CCN2C(N)=O` (stereo not drawn) [CC-1065], for which the IC50 entry in assay [1] is “low pM range”.
As for `CCCC(=O)Nc1cc(/C=C/C(=O)N2CC(CCl)c3ccc([N+](=O)[O-])cc32)n(C)c1` (stereo not drawn) [Compound 7, 1-[(E)-3-(4-butyramido-1-methyl-2-pyrrole)acryloyl]-3-(chloromethyl)-6-nitroindoline], the IC50 turned out to be 2940 ± 320 nM in the assay on UV4 cells [2] (setting [4]), 1080 ± 340 nM in the assay on UV4 cells [2] (setting [5]) and 43 ± 4 nM in the assay on UV4 cells [3]. Also, the “Ratio*” value in the assay on UV4 cells [3] is given as 70±13.
For the compound `CCCC(=O)Nc1cc(/C=C/C(=O)N2CC(CCl)c3ccc(N)cc32)n(C)c1` (stereo not drawn) [Compound 8, 6-amino-1-[(E)-3-(4-butyramido-1-methyl-2-pyrrole)acryloyl]-3-(chloromethyl)indoline], the IC50 stood at 38 nM in the assay with UV4 cells [2] (setting [4]), 24 nM in the assay on UV4 cells [2] (setting [5]) and 35 nM in the assay on UV4 cells [3]. Moreover, in the assay with UV4 cells [3], the “Ratio*” value is listed as 1.1.
As for `Cn1cccc1C(=O)Nc1cccc(/C=C/C(=O)N2CC(CCl)c3ccc([N+](=O)[O-])cc32)c1` (stereo not drawn) [Compound 12, 1-[(E)-3-(1-methylpyrrole-2-carboxamido)cinnamoyl]-3-chloromethyl-6-nitroindoline], the IC50 in the assay on UV4 cells [2] (setting [4]) was roughly 5000 nM. Besides, in the assay with UV4 cells [3], the “Ratio*” value is “ca. 30”.
Consider `CC(=O)Nc1cccc(/C=C/C(=O)N2CC(CCl)c3ccc([N+](=O)[O-])cc32)c1` (stereo not drawn) [Compound 13, 1-[(E)-3-(acetylamino)cinnamoyl]-3-chloromethyl-6-nitroindoline], for which the IC50 was 335 nM with UV4 cells [2] (setting [4]), 339 nM in the assay on UV4 cells [2] (setting [5]) and 74 ± 23 nM with UV4 cells [3]. Moreover, the “Ratio*” value with UV4 cells [3] is given as 3.5.
